ChEMBL document CHEMBL6127049, “Discovery of the selective and nanomolar inhibitor of DPP-4 more potent than sitagliptin by structure-guided rational design” (Eur J Med Chem, 2024)
Active and inactive are the calls of the source. The calls are words filed in the database; no cut-off is given here.

Legend:
Rattus norvegicus [1] = assay: Antihyperlipidemic effect in STZ-induced type 2 diabetes male Wistar albino rat model assessed as triglyceride level at 20 mg/kg, po measured after 4 weeks (reference value: 190.23 +/- 4.37 mg/dL); assay type: functional
Rattus norvegicus [2] = assay: Anti-diabetic activity in normal Wistar rat model assessed as blood glucose level at 10 mg/kg, po followed by treated administered 3 mg/kg orally measured after 60 mins by Oral glucose tolerance test (reference value: 153.74 + /- 3.94 mg/dL); assay type: functional; settings: 1 h
Rattus norvegicus [3] = assay: Reduction of alkaline phosphatase (ALP) level in STZ-induced type 2 diabetes male Wistar albino rat model at 10 mg/kg, po measured after 4 weeks by hepatic function test; assay type: functional, organism-based
Rattus norvegicus [4] = assay: Anti-diabetic activity in normal Wistar rat model assessed as blood glucose level at 10 mg/kg, po followed by treated administered 3 mg/kg orally measured immediately after administration by Oral glucose tolerance test (reference value: 105.12 mg/dL); assay type: functional
[5] = Acute toxicity in Balb/C mouse assessed as morphological changes in unusual behavior at 1250 to 2000 mg/kg, po; assay type: organism-based; settings: in vivo, dose 1250-2000 mg/kg
Rattus norvegicus [6] = assay: Reduction of serum glutamate pyruvate transaminase (SGPT) level in STZ-induced type 2 diabetes male Wistar albino rat model at 20 mg/kg, po measured after 4 weeks by hepatic function test; assay type: functional, organism-based
[7] = Acute toxicity in Balb/C mouse assessed as morphological changes in tremors at 1250 to 2000 mg/kg, po; assay type: organism-based; settings: in vivo, dose 1250-2000 mg/kg
[8] = Acute toxicity in Balb/C mouse assessed as morphological changes in diarrhea at 1250 to 2000 mg/kg, po; assay type: organism-based; settings: in vivo, dose 1250-2000 mg/kg
Rattus norvegicus [9] = species: Rattus norvegicus; assay: Anti-diabetic activity in STZ-induced type 2 diabetes male Wistar albino rat model assessed as fasting blood glucose level measured on day 28; assay type: functional
Rattus norvegicus [10] = assay: Antihyperlipidemic effect in STZ-induced type 2 diabetes male Wistar albino rat model assessed as total cholesterol level at 10 mg/kg, po measured after 4 weeks (reference value: 227.04 +/- 4.10 mg/dL); assay type: functional
Rattus norvegicus [11] = assay: Anti-diabetic activity in normal Wistar rat model assessed as blood glucose level at 20 mg/kg, po followed by treated administered 3 mg/kg orally measured after 60 mins by Oral glucose tolerance test (reference value: 153.74 + /- 3.94 mg/dL); assay type: functional; settings: 1 h
Rattus norvegicus [12] = assay: Antihyperlipidemic effect in STZ-induced type 2 diabetes male Wistar albino rat model assessed as HDL level at 10 mg/kg, po measured after 4 weeks (reference value: 25.54 +/- 2.62 mg/dL); assay type: functional
[13] = Acute toxicity in Balb/C mouse assessed as morphological changes in skin at 1250 to 2000 mg/kg, po; assay type: organism-based; settings: in vivo, dose 1250-2000 mg/kg
Rattus norvegicus [14] = assay: Reduction of serum glutamate pyruvate transaminase (SGPT) level in STZ-induced type 2 diabetes male Wistar albino rat model at 10 mg/kg, po measured after 4 weeks by hepatic function test; assay type: functional, organism-based
Rattus norvegicus [15] = assay: Anti-diabetic activity in normal Wistar rat model assessed as blood glucose level at 20 mg/kg, po followed by treated administered 3 mg/kg orally measured after 90 mins by Oral glucose tolerance test (reference value: 134.11 + /- 4.64 mg/dL); assay type: functional; settings: 1.5 h
[16] = Acute toxicity in Balb/C mouse assessed as morphological changes in convulsions at 1250 to 2000 mg/kg, po; assay type: organism-based; settings: in vivo, dose 1250-2000 mg/kg
Rattus norvegicus [17] = assay: Anti-diabetic activity in normal Wistar rat model assessed as blood glucose level at 20 mg/kg, po followed by treated administered 3 mg/kg orally measured immediately after administration by Oral glucose tolerance test (reference value: 105.12 mg/dL); assay type: functional
Rattus norvegicus [18] = assay: Anti-diabetic activity in normal Wistar rat model assessed as blood glucose level at 10 mg/kg, po followed by treated administered 3 mg/kg orally measured after 90 mins by Oral glucose tolerance test (reference value: 134.11 + /- 4.64 mg/dL); assay type: functional; settings: 1.5 h
[19] = Acute toxicity in Balb/C mouse assessed as morphological changes in nose at 1250 to 2000 mg/kg, po; assay type: organism-based; settings: in vivo, dose 1250-2000 mg/kg
Rattus norvegicus [20] = assay: Antihyperlipidemic effect in STZ-induced type 2 diabetes male Wistar albino rat model assessed as HDL level at 20 mg/kg, po measured after 4 weeks (reference value: 25.54 +/- 2.62 mg/dL); assay type: functional
Dipeptidyl peptidase 4 = Dipeptidyl peptidase 4 (Homo sapiens, UniProt P27487); assay: Inhibition of DPP4 (unknown origin) assessed as hydrolysis rate using Gly-pro-p-nitroanilide as substrate measured after 20 mins incubation by fluorometric assay
Chain of Dipeptidyl peptidase 4 (P27487 whole entry): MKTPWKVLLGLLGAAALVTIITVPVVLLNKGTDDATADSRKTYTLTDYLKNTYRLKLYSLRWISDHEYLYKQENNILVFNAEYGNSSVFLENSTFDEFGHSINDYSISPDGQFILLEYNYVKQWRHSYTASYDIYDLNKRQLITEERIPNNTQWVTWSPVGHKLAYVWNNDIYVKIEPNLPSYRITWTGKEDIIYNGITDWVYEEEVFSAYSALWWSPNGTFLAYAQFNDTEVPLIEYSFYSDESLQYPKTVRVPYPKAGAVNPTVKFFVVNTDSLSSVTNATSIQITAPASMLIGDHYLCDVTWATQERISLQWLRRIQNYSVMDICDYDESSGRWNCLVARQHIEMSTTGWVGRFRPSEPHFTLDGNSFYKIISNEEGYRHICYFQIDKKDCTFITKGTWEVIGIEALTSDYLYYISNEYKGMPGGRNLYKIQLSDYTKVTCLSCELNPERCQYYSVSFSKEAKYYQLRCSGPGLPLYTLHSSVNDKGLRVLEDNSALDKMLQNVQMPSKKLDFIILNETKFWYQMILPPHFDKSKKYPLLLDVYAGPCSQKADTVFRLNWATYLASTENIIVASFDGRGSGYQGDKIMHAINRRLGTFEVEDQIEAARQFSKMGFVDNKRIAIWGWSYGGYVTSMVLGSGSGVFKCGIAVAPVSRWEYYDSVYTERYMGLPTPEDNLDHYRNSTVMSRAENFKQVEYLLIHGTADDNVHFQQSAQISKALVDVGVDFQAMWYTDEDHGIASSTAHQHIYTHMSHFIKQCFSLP

[21] = Acute toxicity in Balb/C mouse assessed as morphological changes in eyes at 1250 to 2000 mg/kg, po; assay type: organism-based; settings: in vivo, dose 1250-2000 mg/kg
Rattus norvegicus [22] = assay: Reduction of alkaline phosphatase (ALP) level in STZ-induced type 2 diabetes male Wistar albino rat model at 20 mg/kg, po measured after 4 weeks by hepatic function test; assay type: functional, organism-based
Rattus norvegicus [23] = assay: Antihyperlipidemic effect in STZ-induced type 2 diabetes male Wistar albino rat model assessed as triglyceride level at 10 mg/kg, po measured after 4 weeks (reference value: 190.23 +/- 4.37 mg/dL); assay type: functional
Rattus norvegicus [24] = assay: Antihyperlipidemic effect in STZ-induced type 2 diabetes male Wistar albino rat model assessed as LDL level at 20 mg/kg, po measured after 4 weeks (reference value: 184.65 +/- 4.57 mg/dL); assay type: functional
Rattus norvegicus [25] = assay: Antihyperlipidemic effect in STZ-induced type 2 diabetes male Wistar albino rat model assessed as total cholesterol level at 20 mg/kg, po measured after 4 weeks (reference value: 227.04 +/- 4.10 mg/dL); assay type: functional
[26] = Acute toxicity in Balb/C mouse assessed as morphological changes in fur at 1250 to 2000 mg/kg, po; assay type: organism-based; settings: in vivo, dose 1250-2000 mg/kg
Rattus norvegicus [27] = assay: Reduction of serum glutamate oxaloacetate transaminase (SGOT) level in STZ-induced type 2 diabetes male Wistar albino rat model at 10 mg/kg, po measured after 4 weeks by hepatic function test; assay type: functional, organism-based
[28] = Acute toxicity in Balb/C mouse assessed as changes in general appearance at 1250 to 2000 mg/kg, po; assay type: organism-based; settings: in vivo, dose 1250-2000 mg/kg
Rattus norvegicus [29] = assay: Reduction of serum glutamate oxaloacetate transaminase (SGOT) level in STZ-induced type 2 diabetes male Wistar albino rat model at 20 mg/kg, po measured after 4 weeks by hepatic function test; assay type: functional, organism-based
Rattus norvegicus [30] = assay: Anti-diabetic activity in normal Wistar rat model assessed as blood glucose level at 20 mg/kg, po followed by treated administered 3 mg/kg orally measured after 30 mins by Oral glucose tolerance test (reference value: 176.14 + /- 4.04 mg/dL); assay type: functional; settings: 0.5 h
Rattus norvegicus [31] = species: Rattus norvegicus; assay: Anti-diabetic activity in STZ-induced type 2 diabetes male Wistar albino rat model assessed as fasting blood glucose level measured on day 1; assay type: functional
Dipeptidyl peptidase 8 = Dipeptidyl peptidase 8 (Homo sapiens, UniProt Q6V1X1); assay: Inhibition of DPP8 (unknown origin) assessed as hydrolysis rate using Gly-pro-p-nitroanilide as substrate measured after 20 mins incubation by […] assay
Chain of Dipeptidyl peptidase 8 (Q6V1X1 whole entry): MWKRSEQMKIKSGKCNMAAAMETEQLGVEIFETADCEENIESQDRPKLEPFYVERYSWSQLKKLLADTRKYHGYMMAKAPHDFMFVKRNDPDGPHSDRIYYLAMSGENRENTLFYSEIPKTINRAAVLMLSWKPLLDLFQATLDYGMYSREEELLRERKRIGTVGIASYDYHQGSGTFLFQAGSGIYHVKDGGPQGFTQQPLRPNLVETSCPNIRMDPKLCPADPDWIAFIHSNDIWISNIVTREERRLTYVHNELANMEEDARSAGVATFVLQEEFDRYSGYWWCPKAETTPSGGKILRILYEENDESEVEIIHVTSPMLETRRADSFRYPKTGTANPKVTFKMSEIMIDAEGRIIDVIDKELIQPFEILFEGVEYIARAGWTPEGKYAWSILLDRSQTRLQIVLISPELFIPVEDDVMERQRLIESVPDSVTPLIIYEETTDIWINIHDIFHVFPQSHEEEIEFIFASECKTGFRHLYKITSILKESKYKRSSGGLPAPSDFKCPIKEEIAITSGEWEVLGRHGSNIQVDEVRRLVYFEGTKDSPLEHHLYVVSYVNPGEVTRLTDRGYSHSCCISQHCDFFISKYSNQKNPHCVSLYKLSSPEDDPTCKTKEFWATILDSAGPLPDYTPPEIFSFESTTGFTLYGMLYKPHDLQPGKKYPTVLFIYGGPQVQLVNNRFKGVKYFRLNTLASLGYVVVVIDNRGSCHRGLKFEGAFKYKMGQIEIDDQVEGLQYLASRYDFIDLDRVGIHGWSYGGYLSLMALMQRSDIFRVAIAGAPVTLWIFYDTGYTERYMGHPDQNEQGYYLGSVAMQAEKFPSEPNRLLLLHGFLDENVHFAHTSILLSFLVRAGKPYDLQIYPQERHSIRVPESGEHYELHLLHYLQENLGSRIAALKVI

[32] = Acute toxicity in Balb/C mouse assessed as morphological changes in salvation at 1250 to 2000 mg/kg, po; assay type: organism-based; settings: in vivo, dose 1250-2000 mg/kg
Dipeptidyl peptidase 9 = Dipeptidyl peptidase 9 (Homo sapiens, UniProt Q86TI2); assay: Inhibition of DPP9 (unknown origin) assessed as hydrolysis rate using Gly-pro-p-nitroanilide as substrate measured after 20 mins incubation by […] assay
Chain of Dipeptidyl peptidase 9 (Q86TI2 whole entry): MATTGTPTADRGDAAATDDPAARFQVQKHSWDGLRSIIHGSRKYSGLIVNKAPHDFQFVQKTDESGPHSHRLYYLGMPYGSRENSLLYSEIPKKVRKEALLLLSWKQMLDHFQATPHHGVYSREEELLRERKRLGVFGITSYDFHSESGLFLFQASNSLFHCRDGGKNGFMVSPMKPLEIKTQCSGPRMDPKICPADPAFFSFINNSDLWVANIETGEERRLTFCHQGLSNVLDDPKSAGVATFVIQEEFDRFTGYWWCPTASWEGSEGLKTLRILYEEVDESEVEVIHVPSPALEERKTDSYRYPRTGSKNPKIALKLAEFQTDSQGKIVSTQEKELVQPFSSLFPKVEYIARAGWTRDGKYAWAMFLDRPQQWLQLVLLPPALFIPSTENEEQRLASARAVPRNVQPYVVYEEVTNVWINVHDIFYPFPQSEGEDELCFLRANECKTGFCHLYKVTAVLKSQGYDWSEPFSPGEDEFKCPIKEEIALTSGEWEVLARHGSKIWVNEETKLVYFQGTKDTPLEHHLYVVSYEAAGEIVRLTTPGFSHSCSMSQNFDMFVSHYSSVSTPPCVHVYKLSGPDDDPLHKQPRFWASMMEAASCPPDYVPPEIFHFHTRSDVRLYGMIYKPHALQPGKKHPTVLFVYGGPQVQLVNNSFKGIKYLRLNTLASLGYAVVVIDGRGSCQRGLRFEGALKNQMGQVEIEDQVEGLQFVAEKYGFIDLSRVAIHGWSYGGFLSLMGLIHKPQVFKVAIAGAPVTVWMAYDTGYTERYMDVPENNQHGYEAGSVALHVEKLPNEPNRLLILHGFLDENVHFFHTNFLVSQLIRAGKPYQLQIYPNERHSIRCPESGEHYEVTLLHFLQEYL

Rattus norvegicus [33] = assay: Antihyperlipidemic effect in STZ-induced type 2 diabetes male Wistar albino rat model assessed as LDL level at 10 mg/kg, po measured after 4 weeks (reference value: 184.65 +/- 4.57 mg/dL); assay type: functional
Rattus norvegicus [34] = assay: Anti-diabetic activity in normal Wistar rat model assessed as blood glucose level at 10 mg/kg, po followed by treated administered 3 mg/kg orally measured after 120 mins by Oral glucose tolerance test (reference value: 126.5 + /- 3.90 mg/dL); assay type: functional; settings: 2 h
Rattus norvegicus [35] = assay: Anti-diabetic activity in normal Wistar rat model assessed as blood glucose level at 10 mg/kg, po followed by treated administered 3 mg/kg orally measured after 30 mins by Oral glucose tolerance test (reference value: […] 176.14 + /- 4.04 mg/dL); assay type: functional; settings: 0.5 h
Rattus norvegicus [36] = assay: Anti-diabetic activity in normal Wistar rat model assessed as blood glucose level at 20 mg/kg, po followed by treated administered 3 mg/kg orally measured after 120 mins by Oral glucose tolerance test (reference value: 126.5 + /- 3.90 mg/dL); assay type: functional; settings: 2 h
Rattus norvegicus [37] = assay: Antihyperlipidemic effect in STZ-induced type 2 diabetes male Wistar albino rat model assessed as HDL level at 0.5 mg/kg, po measured after 4 weeks (reference value: 25.54 +/- 2.62 mg/dL); assay type: functional
Rattus norvegicus [38] = assay: Antihyperlipidemic effect in STZ-induced type 2 diabetes male Wistar albino rat model assessed as triglyceride level at 0.5 mg/kg, po measured after 4 weeks (reference value: 190.23 +/- 4.37 mg/dL); assay type: functional
Rattus norvegicus [39] = assay: Antihyperlipidemic effect in STZ-induced type 2 diabetes male Wistar albino rat model assessed as total cholesterol level at 0.5 mg/kg, po measured after 4 weeks (reference value: 227.04 +/- 4.10 mg/dL); assay type: functional
Rattus norvegicus [40] = assay: Antihyperlipidemic effect in STZ-induced type 2 diabetes male Wistar albino rat model assessed as LDL level at 0.5 mg/kg, po measured after 4 weeks (reference value: 184.65 +/- 4.57 mg/dL); assay type: functional
Rattus norvegicus [41] = assay: Reduction of serum creatinine level in STZ-induced type 2 diabetes male Wistar albino rat model at 10 mg/kg, po measured after 4 weeks by hepatic function test; assay type: functional, organism-based
Rattus norvegicus [42] = assay: Reduction of serum creatinine level in STZ-induced type 2 diabetes male Wistar albino rat model at 20 mg/kg, po measured after 4 weeks by hepatic function test; assay type: functional, organism-based

SMILES	Activity (Rattus norvegicus [1])	Activity (Rattus norvegicus [2])	Activity (Rattus norvegicus [3])	Activity (Rattus norvegicus [4])	Activity (Rattus norvegicus [6])	Activity (Rattus norvegicus [10])	Activity (Rattus norvegicus [11])	Activity (Rattus norvegicus [12])	Activity (Rattus norvegicus [14])	Activity (Rattus norvegicus [15])	Activity (Rattus norvegicus [17])	Activity (Rattus norvegicus [18])	Activity (Rattus norvegicus [20])	IC50 (Dipeptidyl peptidase 4)	Activity (Rattus norvegicus [22])	Activity (Rattus norvegicus [23])	Activity (Rattus norvegicus [24])	Activity (Rattus norvegicus [25])	Activity (Rattus norvegicus [27])	Activity (Rattus norvegicus [29])	also measured
CC1=C(C(=O)O)C(c2ccc(F)c(F)c2)N=C(N)N1C(=O)CN1Cc2cn(S(C)(=O)=O)nc2C1 (stereo not given)	117.23 mg/dL	121.54 mg/dL	Active	103.52 mg/dL	Active	152.34 mg/dL	114.26 mg/dL	45.9 mg/dL	Active	116.56 mg/dL	100.83 mg/dL	110.22 mg/dL	53.56 mg/dL	0.002 µM	Active	146.34 mg/dL	114.67 mg/dL	138.76 mg/dL	Active	Active	Activity [5]: Non-Toxic; Activity [7]: Non-Toxic; Activity [8]: Non-Toxic; Activity (Rattus norvegicus [9]): 141 mg/dL; Activity [13]: Non-Toxic; Activity [16]: Non-Toxic; Activity [19]: Non-Toxic; Activity [21]: Non-Toxic; Activity [26]: Non-Toxic; Activity [28]: Non-Toxic; Activity (Rattus norvegicus [30]): 116.78 mg/dL; Activity (Rattus norvegicus [31]): 291 mg/dL; IC50 (Dipeptidyl peptidase 8): 3.32 µM; Activity [32]: Non-Toxic; IC50 (Dipeptidyl peptidase 9): 2.84 µM; Activity (Rattus norvegicus [33]): 131.65 mg/dL; Activity (Rattus norvegicus [34]): 108.68 mg/dL; Activity (Rattus norvegicus [35]): 119.65 mg/dL; Activity (Rattus norvegicus [36]): 109.75 mg/dL
COc1ccc(Cl)cc1C(=O)NCCc1ccc(S(=O)(=O)NC(=O)NC2CCCCC2)cc1 [GLYBURIDE]	–	–	–	–	–	–	–	–	–	–	–	–	–	–	–	–	–	–	–	–	Activity (Rattus norvegicus [37]): 66.6 mg/dL; Activity (Rattus norvegicus [38]): 106.87 mg/dL; Activity (Rattus norvegicus [39]): 123.65 mg/dL; Activity (Rattus norvegicus [40]): 97.55 mg/dL
CC1=C(C(=O)O)C(c2ccc(F)c(F)c2)N=C(N)N1C(=O)CN1CCn2c(nnc2C(F)(F)F)C1 (stereo not given)	113.65 mg/dL	113.74 mg/dL	Active	103.12 mg/dL	Active	148.1 mg/dL	112.43 mg/dL	48.67 mg/dL	Active	110.82 mg/dL	101.26 mg/dL	134.23 mg/dL	59.54 mg/dL	0.116 µM	Active	141.45 mg/dL	105.65 mg/dL	134.27 mg/dL	Active	Active	Activity (Rattus norvegicus [41]): Active; Activity (Rattus norvegicus [42]): Active; Activity (Rattus norvegicus [30]): 114.05 mg/dL; Activity (Rattus norvegicus [33]): 121.78 mg/dL; Activity (Rattus norvegicus [34]): 126.68 mg/dL; Activity (Rattus norvegicus [35]): 117.53 mg/dL; Activity (Rattus norvegicus [36]): 107.18 mg/dL
